Data: patent US20070149456A1, “Epithelial sodium channel inhibiting agents and uses therefor” (University of Pittsburgh, priority 2005, published 2007)
Entries after “also recorded” stand apart in the source; their conditions may differ.

What was measured:
[1] = target: T1, endogenous ENaC in mpkCCDc14 cells (Mus musculus, UniProt Q61180+Q9WU38+Q9WU39); settings: mouse CCD cells; stated jointly with human airway; Carattino 2006; read-out: IC50, inhibition of ENaC activity; cited from earlier work
T1 construct: endogenous ENaC in a mouse cortical collecting duct (mpkCCDc14) cell line; endogenous in cells; host or cells: mpkCCDc14 mouse cortical collecting duct cell line

[2] = target: T2, endogenous ENaC in HAE cells (Homo sapiens, UniProt P37088+P51168+P51170); settings: human airway cells; stated jointly with mouse CCD; Carattino 2006; read-out: IC50, inhibition of ENaC activity; cited from earlier work
T2 construct: endogenous in cells; host or cells: primary human airway (bronchial) epithelial cells from transplant or donor lungs

[3] = target: T3, wild-type ENaC co-expressed with prostasin (Mus musculus, UniProt Q61180+Q9WU38+Q9WU39); test: Two-electrode voltage clamp in oocytes co-expressing ENaC and prostasin; assay type: cell-based; settings: α-26 1 μM and 10 μM, aprotinin 1 μM present
T3 construct: expressed in transfected cells; host or cells: Xenopus laevis oocytes (cRNA co-injection)
Source text: (§1) Oocyte Expression—cRNAs for α, β, γ mouse ENaC (wild-type and mutant) subunits and mouse prostasin were synthesized with T3 or T7 m-Message mMachineTM (Ambion, Austin, Tex.). Subunits carrying furin cleavage consensus site mutations and the corresponding wild-type subunits have amino-terminal HA and carboxyl-terminal V5 tags (Hughey, R. P., Bruns, J. B., Kinlough, C. L., Harkleroad, K. L., Tong, Q., Carattino, M. D., Johnson, J. P., Stockand, J. D., and Kleyman, T. R. (2004) J. Biol. Chem. 279, 18111-18114 18). Stage V-VI Xenopus laevis oocytes were pretreated with 1.5 mg/ml of type IV collagenase and injected with 0.5-2 ng of cRNA/subunit. Injected oocytes were maintained as previously reported (Carattino, M. D., Hill, W. G., and Kleyman, T. R. (2003), Arachidonic Acid Regulates Surface Expression of Epithelial Sodium Channels, J Biol. Chem. 278, 36202-36213 29).
(§2) Two-electrode Voltage Clamp—Two-electrode voltage clamp (TEV) was performed as previously described (Carattino, M. D., Hill, W. G., and Kleyman, T. R. (2003) J Biol. Chem. 278, 36202-36213 29). The extracellular solution (TEV solution) was (in mM): 110 NaCl, 2 KCl, 1.54 CaCl2, 10 HEPES, pH 7.4, or otherwise as indicated. […] ENaC-mediated whole cell Na^+ currents, at −60 mV,were defined as the amiloride-sensitive component of the current. […]

αR205A,Δ206-231βγ = test: Two-electrode voltage clamp in oocytes expressing channels lacking furin cleavage and the tract αAsp-206-Arg-231; assay type: cell-based, mouse; settings: 1 μM α-26
Source text: as §1, §2

T1 sequence (Q61180 1-205): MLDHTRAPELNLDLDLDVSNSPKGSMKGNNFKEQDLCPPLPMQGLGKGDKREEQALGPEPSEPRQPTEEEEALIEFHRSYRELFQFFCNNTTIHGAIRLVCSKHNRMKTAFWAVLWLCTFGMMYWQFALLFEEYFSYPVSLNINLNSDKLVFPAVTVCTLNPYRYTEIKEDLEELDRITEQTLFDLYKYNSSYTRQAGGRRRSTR
T1 sequence (Q61180 232-699): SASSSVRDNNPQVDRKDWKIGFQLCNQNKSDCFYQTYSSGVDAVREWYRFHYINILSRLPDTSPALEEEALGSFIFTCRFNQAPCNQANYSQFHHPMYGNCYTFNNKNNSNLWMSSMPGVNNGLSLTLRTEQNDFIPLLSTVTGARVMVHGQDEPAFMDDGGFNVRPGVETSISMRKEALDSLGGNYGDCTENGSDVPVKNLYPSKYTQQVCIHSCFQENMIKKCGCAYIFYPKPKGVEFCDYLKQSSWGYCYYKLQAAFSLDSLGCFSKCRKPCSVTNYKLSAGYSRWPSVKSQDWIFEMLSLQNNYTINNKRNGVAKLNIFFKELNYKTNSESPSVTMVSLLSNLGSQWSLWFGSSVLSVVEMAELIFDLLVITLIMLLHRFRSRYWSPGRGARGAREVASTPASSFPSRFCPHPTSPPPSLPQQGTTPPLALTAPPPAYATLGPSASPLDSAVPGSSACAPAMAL
T1 sequence (Q9WU38 whole entry): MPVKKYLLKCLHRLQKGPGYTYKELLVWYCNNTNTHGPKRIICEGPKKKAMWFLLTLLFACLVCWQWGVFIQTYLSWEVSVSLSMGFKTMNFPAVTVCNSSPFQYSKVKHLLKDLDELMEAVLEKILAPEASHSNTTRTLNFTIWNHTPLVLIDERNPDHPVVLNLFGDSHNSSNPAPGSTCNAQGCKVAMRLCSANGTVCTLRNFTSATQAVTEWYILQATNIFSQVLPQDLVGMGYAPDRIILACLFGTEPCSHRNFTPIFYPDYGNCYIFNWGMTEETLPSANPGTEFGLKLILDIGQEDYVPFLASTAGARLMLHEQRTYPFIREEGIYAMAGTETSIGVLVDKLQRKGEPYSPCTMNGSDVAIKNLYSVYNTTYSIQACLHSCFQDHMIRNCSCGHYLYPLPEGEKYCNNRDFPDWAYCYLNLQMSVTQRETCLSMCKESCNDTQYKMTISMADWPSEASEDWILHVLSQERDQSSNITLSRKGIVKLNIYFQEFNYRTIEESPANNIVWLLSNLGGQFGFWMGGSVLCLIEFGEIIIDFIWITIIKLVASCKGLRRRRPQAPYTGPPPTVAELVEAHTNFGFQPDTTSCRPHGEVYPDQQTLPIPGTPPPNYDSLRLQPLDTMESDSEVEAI
T1 sequence (Q9WU39 1-143): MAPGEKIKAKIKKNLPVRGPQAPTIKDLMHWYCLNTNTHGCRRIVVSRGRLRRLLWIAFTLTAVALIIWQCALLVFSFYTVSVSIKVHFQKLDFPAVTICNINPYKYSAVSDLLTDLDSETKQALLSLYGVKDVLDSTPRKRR
T1 sequence (Q9WU39 187-655): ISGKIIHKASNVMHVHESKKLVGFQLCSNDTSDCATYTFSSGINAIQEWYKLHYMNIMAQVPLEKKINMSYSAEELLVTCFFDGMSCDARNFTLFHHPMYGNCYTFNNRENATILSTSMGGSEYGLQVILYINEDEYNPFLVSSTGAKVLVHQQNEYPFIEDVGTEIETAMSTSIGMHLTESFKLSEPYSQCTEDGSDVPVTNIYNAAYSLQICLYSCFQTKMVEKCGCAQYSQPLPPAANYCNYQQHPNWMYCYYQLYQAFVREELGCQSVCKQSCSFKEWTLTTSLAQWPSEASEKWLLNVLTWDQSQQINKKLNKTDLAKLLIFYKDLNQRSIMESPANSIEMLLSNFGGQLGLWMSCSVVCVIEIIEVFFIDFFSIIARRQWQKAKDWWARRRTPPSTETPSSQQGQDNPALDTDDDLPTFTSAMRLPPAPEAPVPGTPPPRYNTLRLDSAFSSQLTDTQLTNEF
T3 sequence (Q61180 1-205): as the sequence (Q61180 1-205) above
T3 sequence (Q61180 232-699): as the sequence (Q61180 232-699) above
T3 sequence (Q9WU38 whole entry): as the sequence (Q9WU38 whole entry) above
T3 sequence (Q9WU39 1-143): as the sequence (Q9WU39 1-143) above
T3 sequence (Q9WU39 187-655): as the sequence (Q9WU39 187-655) above
T2 sequence (P37088 1-178): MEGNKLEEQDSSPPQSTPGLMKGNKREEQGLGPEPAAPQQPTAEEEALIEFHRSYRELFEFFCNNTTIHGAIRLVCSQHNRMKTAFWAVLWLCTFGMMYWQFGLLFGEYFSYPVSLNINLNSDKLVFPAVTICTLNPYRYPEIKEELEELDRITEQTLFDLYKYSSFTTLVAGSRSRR
T2 sequence (P37088 205-669): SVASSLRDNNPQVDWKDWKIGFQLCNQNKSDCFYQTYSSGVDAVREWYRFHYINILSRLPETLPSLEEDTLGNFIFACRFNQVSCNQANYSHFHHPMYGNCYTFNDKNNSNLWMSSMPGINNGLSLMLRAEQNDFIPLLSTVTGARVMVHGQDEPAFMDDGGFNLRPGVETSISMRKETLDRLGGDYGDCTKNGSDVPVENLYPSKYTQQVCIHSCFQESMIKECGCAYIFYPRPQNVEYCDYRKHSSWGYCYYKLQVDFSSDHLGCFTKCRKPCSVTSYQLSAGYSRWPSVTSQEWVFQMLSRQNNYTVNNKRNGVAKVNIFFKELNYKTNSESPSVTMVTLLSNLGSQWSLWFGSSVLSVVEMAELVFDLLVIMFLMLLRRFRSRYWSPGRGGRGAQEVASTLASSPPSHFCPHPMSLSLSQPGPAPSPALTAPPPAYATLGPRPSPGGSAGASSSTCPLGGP
T2 sequence (P51168 whole entry): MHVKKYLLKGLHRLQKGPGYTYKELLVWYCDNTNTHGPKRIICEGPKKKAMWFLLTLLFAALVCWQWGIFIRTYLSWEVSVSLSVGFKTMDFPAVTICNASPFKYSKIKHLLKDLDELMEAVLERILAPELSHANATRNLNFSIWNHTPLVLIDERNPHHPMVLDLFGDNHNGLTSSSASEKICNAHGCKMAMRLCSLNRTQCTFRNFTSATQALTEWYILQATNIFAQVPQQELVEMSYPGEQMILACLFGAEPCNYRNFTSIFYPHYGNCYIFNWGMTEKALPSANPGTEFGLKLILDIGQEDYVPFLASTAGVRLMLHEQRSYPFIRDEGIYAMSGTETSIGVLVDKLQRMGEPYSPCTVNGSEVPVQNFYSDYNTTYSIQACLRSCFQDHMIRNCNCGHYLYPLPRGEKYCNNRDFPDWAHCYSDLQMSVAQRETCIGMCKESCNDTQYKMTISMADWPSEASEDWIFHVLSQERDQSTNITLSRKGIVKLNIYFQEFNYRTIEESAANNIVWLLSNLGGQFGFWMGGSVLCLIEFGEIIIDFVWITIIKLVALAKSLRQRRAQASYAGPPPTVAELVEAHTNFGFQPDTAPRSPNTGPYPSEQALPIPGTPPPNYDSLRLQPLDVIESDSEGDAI
T2 sequence (P51170 1-138): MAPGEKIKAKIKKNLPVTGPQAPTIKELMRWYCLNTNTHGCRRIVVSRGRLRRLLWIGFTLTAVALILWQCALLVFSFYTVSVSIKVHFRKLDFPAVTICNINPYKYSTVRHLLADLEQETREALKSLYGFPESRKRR
T2 sequence (P51170 182-649): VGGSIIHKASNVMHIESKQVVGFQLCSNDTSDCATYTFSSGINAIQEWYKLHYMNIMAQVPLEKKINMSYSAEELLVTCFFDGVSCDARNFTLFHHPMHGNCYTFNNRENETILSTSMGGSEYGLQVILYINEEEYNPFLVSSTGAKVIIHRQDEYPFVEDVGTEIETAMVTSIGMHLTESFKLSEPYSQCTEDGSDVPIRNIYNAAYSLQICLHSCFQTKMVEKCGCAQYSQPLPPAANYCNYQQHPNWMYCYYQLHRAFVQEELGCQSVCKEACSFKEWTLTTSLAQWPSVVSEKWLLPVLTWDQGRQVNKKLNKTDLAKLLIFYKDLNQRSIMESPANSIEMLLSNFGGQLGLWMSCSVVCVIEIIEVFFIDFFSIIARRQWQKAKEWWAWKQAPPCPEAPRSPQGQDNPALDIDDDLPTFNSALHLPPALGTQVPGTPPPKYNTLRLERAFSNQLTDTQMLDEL

Substance: Ac-DLRGALPHPLQRLRTPPPPNPARSAR-NH2 [α-26]
- IC50 [1]: 50 to 100 µM
- IC50 [2]: 50 to 100 µM
- effect of prostasin co-expression on α-26-dependent inhibition of ENaC [3]: significantly reduced the efficacy
- block of channels (αR205A,Δ206-231βγ): does not block; also recorded: not blocked
